Key:
PC-3 tumor cells [1] = type: cell-based, human; settings: PC-3 cells, 60 min efflux, FIG. 14D
Protocol: In the cell efflux experiment, PC-3 cells were seeded into 12-well plates at a density of 5×10^5 cells per well for overnight incubation. Cells were rinsed 3 times with PBS and then the appropriate ^18F-labeled peptide tracer was added. The cells were incubated at 37° C. for 2 hr, washed with PBS, and then reincubated with serum-free medium. The cells were washed at different time points (0, 15, 30, 60, 120, 180 min) with PBS and lysed with NaOH-SDS (0.2 M NaOH, 1% SDS). The cell lysate was collected in measurement tubes for counting. Efflux values at different time points were calculated by subtracting retention from 0-min retention, and normalized by dividing the total counts at 0 min.
(§1) The cell uptake studies were performed as we have previously described with some modifications (Chen et al., Mol Imaging Biol. (2004) […]; Cai et al., (2006) J. Nuc. Med. 47: 1172-1180, incorporated herein by reference in their entireties). Briefly, PC-3 cells were seeded into 12-well plates at a density of 5×10^5 cells per well and incubated (about 18 kBq/well) with ^68Ga-labeled tracers at 37° C. for 15, 30, 60, and 120 min. Tumor cells were then washed three times with chilled PBS and harvested by trypsinization with 0.25% trypsin/0.02% EDTA (Invitrogen). The cell suspensions were collected and measured in a y counter (Packard, Meriden, Conn.). The cell uptake was expressed as the percent added dose (% AD) after decay correction. Experiments were performed twice with triplicate wells. For efflux studies, ^68Ga-labeled tracers (about 18 kBq/well) were first incubated with PC-3 cells in 12-well plates for 1 h at 37° C. to allow internalization. Then cells were washed twice with PBS, and incubated with cell culture medium for 15, 30, and 60 min. After washing three times with PBS, cells were harvested by trypsinization with 0.25% trypsin/0.02% EDTA. The cell suspensions were collected and measured in a γ counter. Experiments were performed twice with triplicate wells. Data are expressed as percent added dose after decay correction.

[2] = Small-animal PET of MDA-MB-435 tumor-bearing mice; settings: female, athymic nude, mouse, in vivo, iv, 3.7 MBq, total radioactivity, MDA-MB435 tumor uptake
Protocol: The MDA-MB435 tumor model was established by orthotopic injections of 5×10^6 cells into the right mammary fat pad of female athymic nude mice. […] The mice were subjected to microPET studies when the tumor volume reached 100-300 mm^3 (2-3 weeks for MDA-MB-435, and 4-5 wk for T47D).
For static PET, 5-min scans were acquired at 30 min, 1 h, and 2 h after injection. For dynamic PET, 30-min scans (1×30 s, 4×1 min, 1×1.5 min, 4×2 min, 5×3 min; total 15 frames) were started 1 min after injection, and two 5-min static PET images were also acquired at 1 h and 2 h after injection. The images were reconstructed using a two-dimensional ordered subsets expectation maximum (OSEM) algorithm and no correction was applied for attenuation or scatter. […] For each small-animal PET scan, regions of interest (ROIs) were drawn over the tumor, normal tissue, and major organs using vendor software ASI Pro 5.2.4.0 on decay-corrected whole-body coronal images. The maximum radioactivity concentrations (accumulation) within a tumor or an organ were obtained from mean pixel values within the multiple ROI volume, and were converted to megabecquerels per milliliter per minute using a conversion factor. These values were then divided by the administered activity to obtain (assuming a tissue density of 1 g/ml) an image ROI-derived percent injected dose per gram (% ID/g).
Quantification of tumor and major organ activity accumulation in the microPET scans was realized by measuring the regions of interest (ROIs) that encompassing the entire organ on the coronal images.

in vivo [3] = settings: mouse, in vivo, iv, total radioactivity
Protocol: (a) PET scans and image analysis were performed using a micro-PET R4 rodent model scanner (Siemens Medical Solutions) as reported by Li et al., J. Nucl. Med. (2007) 48: 1162-1171 and Wu et al., J Nucl. Med. (2005) 46: 1707-1718, both of which are incorporated herein by reference in their entireties). […] Five-minute static PET images were then acquired at 0.5, 1, and 2 h after injection. The images were reconstructed by a 2-dimensional ordered-subsets expectation maximum (OSEM) algorithm. No attenuation or scatter correction was applied. […] The 5-min static PET scans were then acquired at 1 hr after injection. For each small-animal PET scan, regions of interest (ROIs) were drawn over the tumor, normal tissue, and major organs by using vendor software (ASI Pro 5.2.4.0) on decay-corrected whole-body coronal images. The average radioactivity concentration (accumulation) within a tumor or an organ was obtained from mean pixel values within the multiple ROI volume, which were converted to counts/mL/min using a conversion factor. Assuming a tissue density of 1 g/mL, the ROIs were converted to counts/g/min, and then divided by the administered activity to obtain an imaging ROI-derived percentage injected dose per gram of tissue (% ID/g).
For dynamic PET, 30-min scans (1×30 s, 4×1 min, 1×1.5 min, 4×2 min, 5×3 min; total 15 frames) were started 1 min after injection, and two 5-min static PET images were also acquired at 1 h and 2 h after injection. […] For each small-animal PET scan, regions of interest (ROIs) were drawn over the tumor, normal tissue, and major organs using vendor software ASI Pro 5.2.4.0 on decay-corrected whole-body coronal images. The maximum radioactivity concentrations (accumulation) within a tumor or an organ were obtained from mean pixel values within the multiple ROI volume, and were converted to megabecquerels per milliliter per minute using a conversion factor. These values were then divided by the administered activity to obtain (assuming a tissue density of 1 g/ml) an image ROI-derived percent injected dose per gram (% ID/g).
The images were reconstructed using a 2-dimensional ordered-subsets expectation maximum algorithm without attenuation or scatter correction.
For each small-animal PET scan, regions of interest were drawn over each tumor, over normal tissue, and over major organs using vendor software (ASI Pro, version 5.2.4.0) on decay-corrected whole-body coronal images. The maximum radioactivity concentration (accumulation) within a tumor or an organ was obtained from the mean pixel values within the multiple-region-of-interest volume, which were converted to MBq/mL/min using a conversion factor. Assuming a tissue density of 1 g/mL, the regions of interest were converted to MBq/g/min and then divided by the administered activity to obtain an imaging region-of-interest-derived percentage injected dose (% ID)/g.

GRPR = target: T1, GRPR (Homo sapiens, UniProt P30550); test: Displacement cell-binding assay with ^125I-[Tyr4]BBN on PC-3 cells; settings: FIG. 34B, PEG3-Glu-RGD-BBN series; read-out: IC50, displacement of ^125I-[Tyr4]BBN from PC-3 cells
T1 construct: Experiments were performed on GRPR-expressing PC-3 cells following our previously described procedure; endogenous in cells; host or cells: PC-3 human prostate carcinoma cells
Protocol: Experiments were performed with triplicate samples.
BBN as the radioligand. […] Experiments were performed twice with triplicate samples.

DU-145 tumor = type: in vivo, mice; settings: integrin αvβ3-positive, low GRPR-expressing tumor
Protocol: The PC-3 and DU-145 human prostate carcinoma cell lines were purchased from American Type Culture Collection. PC-3 cells were grown in F-12K nutrient mixture (Kaighn's modification) (Invitrogen Corp.), and DU-145 cells were grown in minimum essential medium (Eagle) mixture supplemented with 10% (v/v) fetal bovine serum (Invitrogen) at 37° C. with 5% CO2. The PC-3 and DU-145 tumor models were generated by subcutaneous injection of 5×10^6 tumor cells into the front flank of male athymic nude mice (Harlan).
No attenuation or scatter correction was applied.

PC-3 tumor cells [4] = test: Cell uptake assay on PC-3 tumor cells; type: cell-based, human; settings: PC-3 cells
Protocol: In the cell uptake experiment, PC-3 cells were seeded into 12-well plates at a density of 5×10^5 cells per well for overnight incubation. Cells were rinsed 3 times with phosphate-buffered saline (PBS), followed by the addition of ^18F-FB-RGD, ^18F-FB-BBN, or ^18F-BBN-RGD to the cultured wells in triplicate (about 2 μCi/well). […] The cell lysate was collected in measurement tubes for counting. The cell uptake was normalized in terms of added radioactivity.
as §1

in vivo [5] = test: in vivo; design: species or system mice; settings: female, BALB/c, mouse, iv, 3.7 MBq, total radioactivity
Protocol: The 4T1 murine breast cancer cell line was purchased from American Type Culture Collection and grown in RMPI 1640 medium (Invitrogen Corp.) supplemented with 10% (v/v) fetal bovine serum (Invitrogen) at 37° C. with 5% CO2. The 4T1 tumor model was generated by subcutaneous injection of 5×10^6 tumor cells into the left front flank of female normal BALB/c mice (Harlan).
Five-minute static PET images were then acquired at 2 h after injection (n=3/group).

[6] = male, athymic nude, 5.5 MBq, Blood uptake
[7] = male, athymic nude, 5.5 MBq, Tumor uptake

T1 sequence (P30550 whole entry): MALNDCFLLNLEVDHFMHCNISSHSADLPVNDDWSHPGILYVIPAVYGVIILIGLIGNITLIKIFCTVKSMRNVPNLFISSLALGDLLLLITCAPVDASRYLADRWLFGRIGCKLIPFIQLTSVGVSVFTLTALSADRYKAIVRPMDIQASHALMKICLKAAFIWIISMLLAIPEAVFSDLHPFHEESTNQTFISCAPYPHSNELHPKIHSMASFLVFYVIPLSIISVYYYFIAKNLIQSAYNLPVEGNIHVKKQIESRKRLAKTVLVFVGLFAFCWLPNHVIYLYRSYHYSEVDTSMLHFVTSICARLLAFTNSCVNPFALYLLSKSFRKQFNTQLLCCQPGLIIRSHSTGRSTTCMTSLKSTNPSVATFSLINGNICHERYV

tissue uptake at 0.5 h (in vivo [3]; [7]) [%ID/g]	tissue uptake at 1 h (in vivo [3]; [7]) [%ID/g]	tissue uptake at 4 h (in vivo [3]; [7]) [%ID/g]	tissue uptake at 20 h (in vivo [3]; [7]) [%ID/g]	tissue uptake at 1 h (in vivo [3]; 5.5 MBq, Blood uptake) [%ID/g]	tissue uptake at 4 h (in vivo [3]; 5.5 MBq, Blood uptake) [%ID/g]	tissue uptake at 20 h (in vivo [3]; 5.5 MBq, Blood uptake) [%ID/g]	tissue uptake at 0.5 h (in vivo [3]; 5.5 MBq, Kidney uptake) [%ID/g]	tissue uptake at 1 h (in vivo [3]; 5.5 MBq, Kidney uptake) [%ID/g]	tissue uptake at 4 h (in vivo [3]; 5.5 MBq, Kidney uptake) [%ID/g]	tissue uptake at 20 h (in vivo [3]; 5.5 MBq, Kidney uptake) [%ID/g]	tissue uptake at 0.5 h (in vivo [3]; 5.5 MBq, Liver uptake) [%ID/g]	tissue uptake at 1 h (in vivo [3]; 5.5 MBq, Liver uptake) [%ID/g]	tissue uptake at 4 h (in vivo [3]; 5.5 MBq, Liver uptake) [%ID/g]	tissue uptake at 20 h (in vivo [3]; 5.5 MBq, Liver uptake) [%ID/g]	Compound	further results
–	–	–	–	–	–	–	–	–	–	–	–	–	–	–	CSCC[C@H](NC(=O)[C@H](CC(C)C)NC(=O)[C@H](Cc1c[nH]cn1)NC(=O)CNC(=O)[C@@H](NC(=O)[C@H](C)NC(=O)[C@H](Cc1c[nH]c2ccccc12)NC(=O)[C@H](CCC(N)=O)NC(=O)CCCCCNC(=S)Nc1ccc(C[C@H]2CN(CC(=O)O)CCN(CC(=O)O)CCN2CC(=O)O)cc1)C(C)C)C(N)=O [^68Ga-NOTA-BBN, metal not drawn, reference compound]	cell-associated tracer (cell retention) (PC-3 tumor cells [1]): 6.70±1.00 % AD; tissue uptake at 1 h [2]: 0.38 ± 0.5 %ID/g; tissue uptake at 0.5 h (in vivo [3]; male, athymic nude, 3.7 MBq, liver uptake (highest)): 2 %ID/g
–	–	–	–	–	–	–	–	–	–	–	–	–	–	–	CSCC[C@H](NC(=O)[C@H](CC(C)C)NC(=O)[C@H](Cc1c[nH]cn1)NC(=O)CNC(=O)[C@@H](NC(=O)[C@H](C)NC(=O)[C@H](Cc1c[nH]c2ccccc12)NC(=O)[C@H](CCC(N)=O)NC(=O)CCCCCNC(=O)CC[C@H](NC(=O)COCCOCCOCCN)C(=O)NCCCC[C@@H]1NC(=O)[C@@H](Cc2ccc(O)cc2)NC(=O)[C@H](CC(=O)O)NC(=O)CNC(=O)[C@H](CCCNC(=N)N)NC1=O)C(C)C)C(N)=O [PEG3-Glu-RGD-BBN]	IC50 (GRPR): 85.4 ± 1.95 nM
–	–	–	–	–	–	–	–	–	–	–	–	–	–	–	^18F-FB-BBN-RGD: ^18F-fluorobenzoate-labeled heterodimer of BBN(7-14) and c(RGDyK) joined through a glutamate linker	detection of the DU-145 tumor by PET (DU-145 tumor): able to visualize this tumor model
3.05 ± 0.56	1.87 ± 0.41	1.05 ± 0.49	0.97 ± 0.24	0.69 ± 0.24	0.45 ± 0.2	0.31 ± 0.13	5.99 ± 1.61	3.4 ± 1.25	2.51 ± 0.47	1.64 ± 0.34	3.4 ± 1.42	3.05 ± 1.07	2.33 ± 0.88	1.74 ± 0.9	CSCC[C@H](NC(=O)[C@H](CC(C)C)NC(=O)[C@H](Cc1c[nH]cn1)NC(=O)CNC(=O)[C@@H](NC(=O)[C@H](C)NC(=O)[C@H](Cc1c[nH]c2ccccc12)NC(=O)[C@H](CCC(N)=O)NC(=O)CCCCCNC(=O)CC[C@H](NC(=O)CN1CCN(CC(=O)O)CCN(CC(=O)O)CCN(CC(=O)O)CC1)C(=O)NCCCC[C@@H]1NC(=O)[C@@H](Cc2ccc(O)cc2)NC(=O)[C@H](CC(=O)O)NC(=O)CNC(=O)[C@H](CCCNC(=N)N)NC1=O)C(C)C)C(N)=O [^64Cu-DOTA-RGD-BBN, metal not drawn]	tissue uptake at 0.5 h (in vivo [3]; [6]): 1.15 ± 0.49 %ID/g; cell uptake value (PC-3 tumor cells [4]; 120 min): 3.70 % added dose
1.01 ± 0.29	0.83 ± 0.24	0.66 ± 0.21	0.55 ± 0.32	0.43 ± 0.32	0.3 ± 0.11	0.34 ± 0.18	3.37 ± 0.89	2.13 ± 0.85	1.43 ± 0.68	0.98 ± 0.48	2.86 ± 1.06	2.68 ± 1.15	2.15 ± 0.79	1.67 ± 0.69	N=C(N)NCCC[C@@H]1NC(=O)[C@H](CCCCNC(=S)Nc2ccc(C[C@H]3CN(CC(=O)O)CCN(CC(=O)O)CCN3CC(=O)O)cc2)NC(=O)[C@@H](Cc2ccc(O)cc2)NC(=O)[C@H](CC(=O)O)NC(=O)CNC1=O [^64Cu-NOTA-RGD, metal not drawn, reference compound]	tissue uptake at 2 h (in vivo [5]): 0.65 ± 0.07 %ID/g
–	–	–	–	–	–	–	–	–	–	–	–	–	–	–	^18F-FB-RGD: ^18F-fluorobenzoate-labeled monomeric RGD peptide c(RGDyK) [reference compound]	detection of the DU-145 tumor by PET (DU-145 tumor): able to visualize this tumor model; cell uptake (PC-3 tumor cells [4]; 37° C., normalized to added radioactivity): < 0.5%
2.28 ± 0.35	1.25 ± 1.03	0.56 ± 0.4	0.44 ± 0.39	0.23 ± 0.11	0.19 ± 0.1	0.15 ± 0.05	3.55 ± 1.17	1.5 ± 0.39	0.76 ± 0.45	0.5 ± 0.44	10.4 ± 2.27	8.85 ± 1.61	6.35 ± 0.57	4.2 ± 0.53	CSCC[C@H](NC(=O)[C@H](CC(C)C)NC(=O)[C@H](Cc1c[nH]cn1)NC(=O)CNC(=O)[C@@H](NC(=O)[C@H](C)NC(=O)[C@H](Cc1c[nH]c2ccccc12)NC(=O)[C@H](CCC(N)=O)NC(=O)CCCCCNC(=S)Nc1ccc(C[C@H]2CN(CC(=O)O)CCN(CC(=O)O)CCN2CC(=O)O)cc1)C(C)C)C(N)=O [^64Cu-NOTA-BBN, metal not drawn, reference compound]	tissue uptake at 2 h (in vivo [5]): 0.33 ± 0.18 %ID/g; tissue uptake at 0.5 h (in vivo [3]; [6]): < 1 %ID/g; tissue uptake at 24 h (in vivo [3]; [7]): 0.44 ± 0.39 %ID/g
–	–	–	–	–	–	–	–	–	–	–	–	–	–	–	N=C(N)NCCC[C@@H]1NC(=O)[C@H](CCCCNC(=S)Nc2ccc(C[C@H]3CN(CC(=O)O)CCN(CC(=O)O)CCN3CC(=O)O)cc2)NC(=O)[C@@H](Cc2ccc(O)cc2)NC(=O)[C@H](CC(=O)O)NC(=O)CNC1=O [^68Ga-NOTA-RGD, metal not drawn, reference compound]	tissue uptake at 1 h [2]: 1.63 ± 0.59 %ID/g

— US20100015058A1, “RADIOLABELED BBN-RGD HETERODIMERS FOR CANCER TARGETING” (STANFORD UNIVERSITY, priority 2008, published 2010)
